Earlier results on 1 compound are cited in patent publication US7550154B2, “Methods of treatment with drug loaded polymeric materials” (Yale University, priority 2004, dated 2009).

For `COc1cccc2c1C(=O)c1c(O)c3c(c(O)c1C2=O)C[C@@](O)(C(=O)CO)C[C@@H]3O[C@H]1C[C@H](N)[C@H](O)[C@H](C)O1` [Dox, doxorubicin], the “solubility in aqueous environments” value is recorded as “limited solubility”.
